Data on 18 molecules can be found in patent US20090048295A1, “SUBSTITUTED 5,6,7,8-TETRAHYDROQUINOLINE DERIVATIVES, COMPOSITIONS, AND METHODS OF USE THEREOF” (priority 2007, published 2009).

In assay [1] the target is T1, C5a receptor (Homo sapiens, UniProt P21730).
T1 sequence (P21730 1-350): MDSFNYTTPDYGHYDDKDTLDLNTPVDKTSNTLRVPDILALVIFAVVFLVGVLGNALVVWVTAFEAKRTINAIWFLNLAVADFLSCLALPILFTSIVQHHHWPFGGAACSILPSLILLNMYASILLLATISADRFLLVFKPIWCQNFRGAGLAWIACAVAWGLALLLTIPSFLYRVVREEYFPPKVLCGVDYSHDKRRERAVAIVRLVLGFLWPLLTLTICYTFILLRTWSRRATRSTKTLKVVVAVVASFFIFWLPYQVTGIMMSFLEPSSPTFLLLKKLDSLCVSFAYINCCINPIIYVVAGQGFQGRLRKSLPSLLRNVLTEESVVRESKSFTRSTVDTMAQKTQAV
The experiment in a line: Calcium Mobilization Assay (C5a-induced Ca2+ mobilization, FLIPR, differentiated U937 cells). In kind it is cell-based. Further details: endogenous in cells; host or cells: U937 cells differentiated with dibutyryl cAMP. The note with it: […] recombinant human C5a, 20 min pre-incubation, multiple values = duplicate experiments, read-out: C5a Induced Ca Mobil. Average IC50. On the procedure: U937 cells (human monocytic cell line) were cultured in RPMI-1640 medium supplemented with 10% fetal bovine serum, 10 mM HEPES, 0.11 g/L pyruvate, 0.29 g/L L-glutamine, 100 IU/mL penicillin G and […] streptomycin. Dibutyryl cAMP (1 mM) was added to induce differentiation 2 or 3 days prior to loading the cells with 4.4 μM Fluo-3AM (Molecular Probes) for 30 min at 37° C. in RPMI medium containing 20 mM HEPES, 0.1% bovine serum albumin (BSA) and 5 mM probenecid. After washing, cells were dissolved at 2×10^6 cells/ml in HBSS buffer (Invitrogen 14190-094) supplemented with 10 mM HEPES, 2.5 mM probenecid and 0.1% BSA (pH=7.4), and sedimented by 1 min centrifugation (1500 rpm) in black 96-well plates (Costar) (200,000 cells/well). A 100× concentration range of test compounds was prepared in DMSO and further diluted in HBSS buffer. U937 cells were pre-incubated with compound for 20 minutes at room temperature (1% DMSO), before recombinant human C5a (Sigma) was added to the cells (1.5 nM). Changes in intracellular free Ca^2+ concentration were measured using the Fluorescent Imaging Plate Reader (FLIPR, Molecular Devices). Fluorescence was recorded every second from 10 seconds before the addition of C5a until 2 min after the addition. The maximal fluorescence obtained during this time frame was used for further calculations.
Background: Calcium flux is commonly read through the fluorescence of an indicator in the cells.

Assay [2] addresses T1, C5a receptor. The experiment in a line: [125I]-C5a Radioligand Binding Assay (competition binding, differentiated U937 cells).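 On all read-outs here: cells preincubated with compound 30 min at room temperature, then 60 min at 4 °C with radioligand, bound counts read by scintillation, nonspecific binding defined with 100 nM C5a.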 Particulars: [125I]-C5a 0.05 nM, U937 cells, multiple values = duplicate experiments; for inhibition at 1 µM: read-out: [125I]-C5a Binding % Inhibition 1 μM, test compound 1 μM; for inhibition at 10 µM: read-out: [125I]-C5a Binding % Inhibition 10 μM, test compound 10 μM.
Description: Competition binding assays for C5a receptors were performed by incubation of differentiated U937 cells (200,000 cells/well), test compound (1% DMSO) and [^125I]-C5a (Bolton & Hunter labeled, Perkin Elmer, specific activity=2200 Ci/mmol, 0.05 nM final) in binding buffer consisting of 50 mM HEPES, 5 mM MgCl2, 1 mM CaCl2, 0.5% protease-free BSA, 0.02% NaN3, pH 7.4. 100× solutions of test compounds were prepared in DMSO and further diluted in binding buffer. Non-specific binding was defined in wells containing 100 nM recombinant C5a. Cells and compound were pre-incubated for 30 min at RT. After addition of the radioligand, further incubation for 60 min occurred at 4° C. Cells were harvested on GF/B filters—presoaked in 0.5% polyethylenimine, followed by washing with binding buffer containing 500 mM NaCl, pH 7.4. Filter bound radioactivity was determined by liquid scintillation counting. IC50 and Ki values were calculated using non-linear regression in Graphpad Prism. Ki is calculated using the equation of Cheng and Prusoff (Biochem. Pharmacol. 1973, 22: 3099-3108)

Take `COc1ccc2cccc(N(C)C3CCCc4nc(-c5c(C)cccc5C)cc(OC)c43)c2c1` (stereo not drawn) [Compound 116]: the IC50 in assay [1] was above 10 µM. Also, in assay [2], the inhibition at 1 µM is 87% and the inhibition at 10 µM was determined as 86%.

Turning to `CCc1cccc(CC)c1-c1cc(OC)c2c(n1)CCCC2N(C)c1cccc2ccccc12` (stereo not drawn) [Compound 104], the IC50 in assay [1] was above 10 µM. In assay [2], the inhibition at 1 µM was 56% and the inhibition at 10 µM is 64%.

As to `COc1cc(-c2c(C)cccc2C)nc2c1C(N(C)c1cccc3c1CCN(C)C3)CCC2` (stereo not drawn) [Compound 112], the IC50 in assay [1] is above 10 µM. In assay [2], the inhibition at 1 µM came to 36% and the inhibition at 10 µM came out at 70%.

On to `CCc1cccc(CC)c1-c1cc(OC)c2c(n1)CCCC2N1CCc2cc(C(=O)OC)ccc2C1` (stereo not drawn) [Compound 98], for which, in assay [1], the IC50 was above 10 µM. In assay [2], the inhibition at 1 µM came out at 43% and the inhibition at 10 µM stood at 70%.

As to `CCc1cccc(CC)c1-c1cc(OC)c2c(n1)CCCC2N(C)c1ccccc1C` (stereo not drawn) [Compound 42], the half-inhibitory concentration (IC50) in assay [1] came out at 0.792 µM. For the same molecule, in assay [2], the inhibition at 1 µM came to 83% and the inhibition at 10 µM came out at 86%.

`CCc1cccc(CC)c1-c1cc(OC)c2c(n1)CCCC2N1CCc2ccc(C(=O)O)cc2C1` (stereo not drawn) [Compound 131]: the IC50 in assay [1] was above 10 µM. In assay [2], the inhibition at 1 µM is -26% and the inhibition at 10 µM was -9%.

With `CCc1cccc(CC)c1-c1cc(OC)c2c(n1)CCCC2N(CC)c1ncnc2ccccc12` (stereo not drawn) [Compound 135], in assay [1], the IC50 is above 10 µM. Also, in assay [2], the inhibition at 1 µM was determined as 16% and the inhibition at 10 µM stood at 47%.

For the molecule `CCc1cccc(CC)c1-c1cc(OC)c2c(n1)CCCC2Nc1cc(Cl)ccc1C` (stereo not drawn) [Compound 53], the IC50 in assay [1] stood at 1.49 µM. In addition, in assay [2], the inhibition at 1 µM stood at 85% and the inhibition at 10 µM came out at 91%.

On to `CCc1cccc(CC)c1-c1cc(OC)c2c(n1)CCCC2N1CCc2cccc(C(=O)O)c2C1` (stereo not drawn) [Compound 130], for which the IC50 in assay [1] was above 10 µM. For the same molecule, in assay [2], the inhibition at 1 µM is -24% and the inhibition at 10 µM is -13%.

Turning to `COc1cc(-c2c(C)cccc2C)nc2c1C(N(C)c1cc(C)ccc1C(C)C)CCC2` (stereo not drawn) [Compound 110], the IC50 in assay [1] is above 10 µM. Besides, in assay [2], the inhibition at 1 µM is 77% and the inhibition at 10 µM was 82%.

Regarding `CCN(c1cccc2ccccc12)C1CCCc2nc(-c3ccccc3C)cc(OC)c21` (stereo not drawn) [Compound 30], the IC50 in assay [1] was found to be 0.354 µM. Besides, in assay [2], the inhibition at 1 µM amounted to 68% and the inhibition at 10 µM is 82%.

`CCc1cccc(CC)c1-c1cc(OC)c2c(n1)CCCC2N1CCc2ccc(C#N)cc2C1` (stereo not drawn) [Compound 96]: in assay [1], the IC50 is above 10 µM. Further, in assay [2], the inhibition at 1 µM came to 77% and the inhibition at 10 µM is 87%.

In the case of `COc1cc(-c2c(C)cccc2C)nc2c1C(N(C)c1cccc(Cl)c1C)CCC2` (stereo not drawn) [Compound 115], in assay [1], the IC50 was above 10 µM. For the same molecule, in assay [2], the inhibition at 1 µM turned out to be 75% and the inhibition at 10 µM came to 80%.

On to `CCc1cccc(CC)c1-c1cc(OC)c2c(n1)CCCC2N(C(C)=O)c1cccc2ccccc12` (stereo not drawn) [Compound 79], for which, in assay [1], the IC50 came out at 6.17 µM. Besides, in assay [2], the inhibition at 1 µM amounted to 49% and the inhibition at 10 µM came to 78%.

In the case of `CCc1cccc(CC)c1-c1cc(OC)c2c(n1)CCCC2N1CCc2cccc(C(=O)OC)c2C1` (stereo not drawn) [Compound 44], the IC50 in assay [1] came to 0.839 µM. Moreover, in assay [2], the inhibition at 1 µM came to 77% and the inhibition at 10 µM was determined as 87%.

On to `CCc1cccc(CC)c1-c1cc(OC)c2c(n1)CCCC2Nc1ccc(OC)cc1C` (stereo not drawn) [Compound 63], for which, in assay [1], the IC50 was 2.35 µM. Further, in assay [2], the inhibition at 1 µM was found to be 74% and the inhibition at 10 µM is 82%.

For the molecule `CCc1cccc(CC)c1-c1cc(OC)c2c(n1)CCCC2N1CCc2cc(C(F)(F)F)ccc2C1` (stereo not drawn) [Compound 102], the IC50 in assay [1] is above 10 µM. Also, in assay [2], the inhibition at 1 µM was found to be 74% and the inhibition at 10 µM stood at 80%.

`CCc1cccc(CC)c1-c1cc(OC)c2c(n1)CCCC2N(C)c1cc(OC)ccc1C` (stereo not drawn) [Compound 38]: the IC50 in assay [1] was 0.56 µM. Besides, in assay [2], the inhibition at 1 µM was 84% and the inhibition at 10 µM was determined as 87%.

For orientation: IC50 means the midpoint of a concentration-inhibition curve. As usually defined, the inhibition is the relative decrease from the control value, in per cent.
